Assay results as given in patent US20260285853A1, “COMPOUNDS AND METHODS FOR MODULATING SPLICING” (REMIX THERAPEUTICS INC., priority 2023, published 2026).
Counter-ions that a name gives are not always drawn.

Experiments:
Format in all cases: cell-based
[1] = tested on: HTT mRNA; assay: Splicing RT-qPCR assay (THP), Table 2A; conditions: Table 2A (THP); for AC50: AJ mRNA increase, read-out: HTT AJ (increase in alternative junction mRNA, AC50); for IC50: CJ mRNA decrease, read-out: HTT CJ (decrease in canonical junction mRNA, IC50)
[2] = tested on: SH-SY5Y (human neuroblastoma) cells; assay: Cell viability, Cell Titer Glo 2.0 assay; conditions: read-out: Viability SHSY5Y.3 GI50
In short: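 Toxicity screen in SH-SY5Y cells. Compounds were serially diluted in DMSO and then in medium, giving 0.1% DMSO final. Viability was read with CellTiter-Glo 2.0 after 72 h at 37 °C, 5% CO2, against medium-only blank wells.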

[3] = tested on: MYB mRNA; assay: Splicing RT-qPCR assay (THP), Table 2A; conditions: Table 2A (THP); for AC50: AJ mRNA increase, read-out: MYB AJ (increase in alternative junction mRNA, AC50); for IC50: CJ mRNA decrease, read-out: MYB CJ (decrease in canonical junction mRNA, IC50)
[4] = tested on: SMN2 mRNA; assay: Gene panel canonical junction qPCR assay, decrease in CJ mRNA, Table 3; conditions: decrease in canonical junction (CJ) mRNA, gene panel qPCR, Table 3
In short: (§1)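 A673 (DMEM, 10% FBS, 15,000 cells/well) or K562 (IMDM, 10% FBS) cells treated 24 h at 37 °C with 11-point 3-fold dilutions, top 10 uM, DMSO ≤0.25%. Canonical exon-exon junction mRNA measured by RT-qPCR, normalized to GAPDH, GUSB or PPIA and DMSO (ΔΔCt); IC50 from 4-parameter logistic fit.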

[5] = tested on: HTT mRNA; assay: as above; conditions: decrease in canonical junction (CJ) mRNA, gene panel qPCR, Table 3
In short: as §1

[6] = tested on: MYB mRNA; assay: as above; conditions: decrease in canonical junction (CJ) mRNA, gene panel qPCR, Table 3
In short: as §1

SMILES	AC50 [1] [µM]	IC50 [1] [µM]	GI50 [2] [µM]	AC50 [3] [µM]	IC50 [3] [µM]	IC50 [4] [µM]	IC50 [5] [µM]	IC50 [6] [µM]
COc1nc2c(C(=O)Nc3cc(F)c4nc(C)cn4c3)ccc(N3CCC(N)CC3)c2s1 [Compound 208, 7-(4-aminopiperidin-1-yl)-N-(8-fluoro-2-methylimidazo[1,2-a]pyridin-6-yl)-2-methoxybenzo[d]thiazole-4-carboxamide]	0.1 to 1	< 0.1	< 0.1	< 0.1	< 0.1	< 0.1	0.1 to 1	< 0.1
Cc1cn2cc(NC(=O)c3ccc(N4CCC(NC5CC5)CC4)c4cc(C)nn34)cc(F)c2n1 [Compound 209, 4-[4-(cyclopropylamino)-1-piperidyl]-N-(8-fluoro-2-methyl-imidazo[1,2-a]pyridin-6-yl)-2-methyl-pyrazolo[1,5-a]pyridine-7-carboxamide]	0.1 to 1	0.1 to 1	< 0.1	< 0.1	< 0.1	< 0.1	0.1 to 1	< 0.1
Cc1cn2cc(NC(=O)c3ccc(N4CCC(NC5CC5)CC4)n4cc(C)nc34)cc(F)c2n1 [Compound 210, 5-(4-(cyclopropylamino)piperidin-1-yl)-N-(8-fluoro-2-methylimidazo[1,2-a]pyridin-6-yl)-2-methylimidazo[1,2-a]-pyridine-8-carboxamide]	0.1 to 1	< 0.1	< 0.1	< 0.1	< 0.1	< 0.1	0.1 to 1	< 0.1
Cc1cn2cc(NC(=O)c3ccc(N4C[C@@H](C)N[C@@H](C)C4)c4[nH]cnc34)cc(F)c2n1 [Compound 220, 7-[(3R,5S)-3,5-dimethylpiperazin-1-yl]-N-(8-fluoro-2-methyl-imidazo[1,2-a]pyridin-6-yl)-1H-1,3-benzodiazole-4-carboxamide]	1 to 10	> 10	1 to 10	0.1 to 1	0.1 to 1	0.1 to 1	1 to 10	0.1 to 1
Cc1cn2cc(NC(=O)c3ccc(N4C[C@H](C)N[C@@H](C)C4)c4[nH]cnc34)cc(F)c2n1 [Compound 221, 7-[(3S,5S)-3,5-dimethylpiperazin-1-yl]-N-(8-fluoro-2-methylimidazo[1,2-a]pyridin-6-yl)-1H-1,3-benzodiazole-4-carboxamide]	1 to 10	1 to 10	1 to 10	0.1 to 1	0.1 to 1	< 0.1	> 10	0.1 to 1
Cc1cn2cc(NC(=O)c3ccc(N4C[C@@H](C)N[C@@H](C)C4)c4[nH]c(C)nc34)cc(F)c2n1 [Compound 225, 7-[(3R,5S)-3,5-dimethylpiperazin-1-yl]-N-(8-fluoro-2-methylimidazo[1,2-a]pyridin-6-yl)-2-methyl-1H-1,3-benzodiazole-4-carboxamide]	> 10	1 to 10	1 to 10	1 to 10	0.1 to 1	0.1 to 1	1 to 10	1 to 10
Cc1cn2nc(C(=O)Nc3ccc(N4C[C@@H](C)N[C@@H](C)C4)c4cc[nH]c34)cc(C)c2n1 [Compound 237, N-(4-[(3R,5S)-3,5-dimethylpiperazin-1-yl]-1H-indol-7-yl)-2,8-dimethylimidazo[1,2-b]pyridazine-6-carboxamide]	1 to 10	1 to 10	1 to 10	1 to 10	1 to 10	1 to 10	1 to 10	1 to 10
Cc1cn2cc(NC(=O)c3ccc(N4C[C@H](C)N[C@@H](C)C4)c4[nH]nnc34)cc(F)c2n1 [Compound 242, 7-[(3S,5S)-3,5-dimethylpiperazin-1-yl]-N-(8-fluoro-2-methyl-imidazo[1,2-a]pyridin-6-yl)-1H-benzotriazole-4-carboxamide]	> 10	> 10	> 10	> 10	> 10	1 to 10	> 10	> 10
Cc1cn2cc(NC(=O)c3ccc(N4C[C@@H](C)N[C@@H](C)C4)c4[nH]nnc34)cc(F)c2n1 [Compound 243, 7-((3S,5R)-3,5-dimethylpiperazin-1-yl)-N-(8-fluoro-2-methylimidazo[1,2-a]pyridin-6-yl)-1H-benzo[d][1,2,3]-triazole-4-carboxamide hydrochloride]	> 10	> 10	> 10	> 10	> 10	1 to 10	> 10	> 10
